Test results published in the NIST ThermoML archive (doi:10.1021/je060271a).
Where “and” joins values, the source holds several entries; their conditions need not be identical. Equal values may be shown once. ± gives the expanded uncertainty stated by the source.

Details: Liquid, Vibrating tube method

CCCCCCCC(=O)OCC(COC(=O)CCCCCCC)(COC(=O)CCCCCCC)COC(=O)CCCCCCC [pentaerythritol tetraoctanoate]
Details | mass density
303.14 K, 4098.2 kPa | 957.9 ± 1.2 kg/m3
303.14 K, 4118.3 kPa | 957.9 ± 1.2 kg/m3
303.14 K, 4135.4 kPa | 957.9 ± 1.2 kg/m3
303.14 K, 4156 kPa | 957.9 ± 1.2 kg/m3
303.14 K, 4172.8 kPa | 957.9 ± 1.2 kg/m3
303.14 K, 4194.3 kPa | 958 ± 1.2 kg/m3
303.14 K, 4211.9 kPa | 958 ± 1.2 kg/m3
303.14 K, 4232.9 kPa | 958.1 ± 1.2 kg/m3
303.14 K, 4250 kPa | 958 ± 1.2 kg/m3
303.14 K, 4271.5 kPa | 958.1 ± 1.2 kg/m3
303.14 K, 4289.7 kPa | 958 ± 1.2 kg/m3
303.14 K, 4414.6 kPa | 958.1 ± 1.2 kg/m3
303.14 K, 4495.8 kPa | 958.1 ± 1.2 kg/m3
303.14 K, 4506.9 kPa | 958.2 ± 1.2 kg/m3
303.14 K, 4516.1 kPa | 958.2 ± 1.2 kg/m3
303.14 K, 4528.5 kPa | 958.3 ± 1.2 kg/m3
303.14 K, 4565.1 kPa | 958.2 ± 1.2 kg/m3
303.14 K, 4883.3 kPa | 958.4 ± 1.2 kg/m3
303.14 K, 4909.3 kPa | 958.4 ± 1.2 kg/m3
303.14 K, 4931.2 kPa | 958.5 ± 1.2 kg/m3
303.14 K, 4958.7 kPa | 958.5 ± 1.2 kg/m3
303.14 K, 5309.4 kPa | 958.7 ± 1.2 kg/m3
303.14 K, 5618.4 kPa | 958.8 ± 1.2 kg/m3
303.14 K, 5650.1 kPa | 958.8 ± 1.2 kg/m3
303.14 K, 5689.5 kPa | 958.9 ± 1.2 kg/m3
303.14 K, 5713.9 kPa | 959 ± 1.2 kg/m3
303.14 K, 5742.8 kPa | 959 ± 1.2 kg/m3
303.14 K, 6420.5 kPa | 959.2 ± 1.2 kg/m3
303.14 K, 6514.5 kPa | 959.4 ± 1.2 kg/m3
303.14 K, 6535.9 kPa | 959.5 ± 1.2 kg/m3
303.14 K, 6561.5 kPa | 959.4 ± 1.2 kg/m3
303.14 K, 6885.2 kPa | 959.7 ± 1.2 kg/m3
303.14 K, 6937.5 kPa | 959.7 ± 1.2 kg/m3
303.14 K, 6965.9 kPa | 959.7 ± 1.2 kg/m3
303.14 K, 6989.7 kPa | 959.7 ± 1.2 kg/m3
303.14 K, 7018.5 kPa | 959.7 ± 1.2 kg/m3
303.14 K, 7042.7 kPa | 959.8 ± 1.2 kg/m3
303.14 K, 7072.4 kPa | 959.8 ± 1.2 kg/m3
303.14 K, 7331.7 kPa | 960 ± 1.2 kg/m3
303.14 K, 7358.2 kPa | 959.8 ± 1.2 kg/m3
303.14 K, 7974.8 kPa | 960.4 ± 1.2 kg/m3
303.14 K, 8046.4 kPa | 960.3 ± 1.2 kg/m3
303.14 K, 8085.7 kPa | 960.5 ± 1.2 kg/m3
303.14 K, 8120 kPa | 960.5 ± 1.2 kg/m3
303.14 K, 8830.9 kPa | 960.7 ± 1.2 kg/m3
303.14 K, 9313 kPa | 961.2 ± 1.2 kg/m3
303.14 K, 9339.7 kPa | 961.2 ± 1.2 kg/m3
303.14 K, 11022 kPa | 962.1 ± 1.2 kg/m3
303.14 K, 11048 kPa | 962.2 ± 1.2 kg/m3
303.14 K, 13652 kPa | 963.7 ± 1.2 kg/m3
303.14 K, 13735 kPa | 963.7 ± 1.2 kg/m3
303.14 K, 13777 kPa | 963.7 ± 1.2 kg/m3
303.14 K, 13855 kPa | 963.8 ± 1.2 kg/m3
303.14 K, 13898 kPa | 963.8 ± 1.2 kg/m3
303.14 K, 14022 kPa | 964 ± 1.2 kg/m3
303.15 K, 104.6 kPa | 955.3 ± 1.2 kg/m3 and 955.4 ± 1.2 kg/m3
303.15 K, 104.7 kPa | 955.5 ± 1.2 kg/m3 and 955.4 ± 1.2 kg/m3
303.15 K, 104.9 kPa | 955.4 ± 1.2 kg/m3
303.15 K, 105.1 kPa | 955.4 ± 1.2 kg/m3
303.15 K, 106.7 kPa | 955.3 ± 1.2 kg/m3
303.15 K, 113.4 kPa | 955.5 ± 1.2 kg/m3
303.15 K, 119.7 kPa | 955.5 ± 1.2 kg/m3
303.15 K, 123.3 kPa | 955.5 ± 1.2 kg/m3
303.15 K, 127.9 kPa | 955.5 ± 1.2 kg/m3
303.15 K, 133.8 kPa | 955.5 ± 1.2 kg/m3
303.15 K, 141.4 kPa | 955.5 ± 1.2 kg/m3
303.15 K, 151 kPa | 955.4 ± 1.2 kg/m3
303.15 K, 163.8 kPa | 955.4 ± 1.2 kg/m3
303.15 K, 180.7 kPa | 955.5 ± 1.2 kg/m3
303.15 K, 203.5 kPa | 955.6 ± 1.2 kg/m3
303.15 K, 234.4 kPa | 955.6 ± 1.2 kg/m3
303.15 K, 272.8 kPa | 955.5 ± 1.2 kg/m3
303.15 K, 306.2 kPa | 955.6 ± 1.2 kg/m3
303.15 K, 333.5 kPa | 955.7 ± 1.2 kg/m3
303.15 K, 351.9 kPa | 955.6 ± 1.2 kg/m3
303.15 K, 363.2 kPa | 955.6 ± 1.2 kg/m3
303.15 K, 377.9 kPa | 955.7 ± 1.2 kg/m3
303.15 K, 393.4 kPa | 955.6 ± 1.2 kg/m3
303.15 K, 410.1 kPa | 955.7 ± 1.2 kg/m3
303.15 K, 427 kPa | 955.6 ± 1.2 kg/m3
303.15 K, 438.6 kPa | 955.6 ± 1.2 kg/m3
303.15 K, 450.2 kPa | 955.6 ± 1.2 kg/m3
303.15 K, 462.7 kPa | 955.6 ± 1.2 kg/m3
303.15 K, 474.7 kPa | 955.6 ± 1.2 kg/m3
303.15 K, 487.9 kPa | 955.7 ± 1.2 kg/m3
303.15 K, 499.6 kPa | 955.6 ± 1.2 kg/m3
303.15 K, 514.7 kPa | 955.8 ± 1.2 kg/m3
303.15 K, 529.5 kPa | 955.5 ± 1.2 kg/m3
303.15 K, 545.8 kPa | 955.7 ± 1.2 kg/m3
303.15 K, 562.8 kPa | 955.6 ± 1.2 kg/m3
303.15 K, 580.7 kPa | 955.7 ± 1.2 kg/m3
303.15 K, 600.2 kPa | 955.7 ± 1.2 kg/m3
303.15 K, 620 kPa | 955.7 ± 1.2 kg/m3
303.15 K, 635.4 kPa | 955.8 ± 1.2 kg/m3
303.15 K, 653.7 kPa | 955.7 ± 1.2 kg/m3
303.15 K, 673.1 kPa | 955.8 ± 1.2 kg/m3
303.15 K, 690.2 kPa | 955.8 ± 1.2 kg/m3
303.15 K, 711.7 kPa | 955.8 ± 1.2 kg/m3
303.15 K, 734 kPa | 955.8 ± 1.2 kg/m3
303.15 K, 753.9 kPa | 955.8 ± 1.2 kg/m3
303.15 K, 778.9 kPa | 955.8 ± 1.2 kg/m3
303.15 K, 805.3 kPa | 955.7 ± 1.2 kg/m3
303.15 K, 828.4 kPa | 956 ± 1.2 kg/m3
303.15 K, 856.4 kPa | 956 ± 1.2 kg/m3
303.15 K, 878.8 kPa | 956 ± 1.2 kg/m3
303.15 K, 896.7 kPa | 955.9 ± 1.2 kg/m3
303.15 K, 918.8 kPa | 955.9 ± 1.2 kg/m3
303.15 K, 937.7 kPa | 955.8 ± 1.2 kg/m3
303.15 K, 961.3 kPa | 955.9 ± 1.2 kg/m3
303.15 K, 986.7 kPa | 956 ± 1.2 kg/m3
303.15 K, 1012 kPa | 956 ± 1.2 kg/m3
303.15 K, 1034.8 kPa | 956.1 ± 1.2 kg/m3
303.15 K, 1062.9 kPa | 956 ± 1.2 kg/m3
303.15 K, 1087.6 kPa | 956.1 ± 1.2 kg/m3
303.15 K, 1118 kPa | 956.1 ± 1.2 kg/m3
303.15 K, 1149.9 kPa | 956 ± 1.2 kg/m3
303.15 K, 1183.3 kPa | 956 ± 1.2 kg/m3
303.15 K, 1212.4 kPa | 956.1 ± 1.2 kg/m3
303.15 K, 1248.7 kPa | 956.1 ± 1.2 kg/m3
303.15 K, 1287.1 kPa | 956.2 ± 1.2 kg/m3
303.15 K, 1320.4 kPa | 956.1 ± 1.2 kg/m3
303.15 K, 1362.3 kPa | 956.1 ± 1.2 kg/m3
303.15 K, 1407.7 kPa | 956.3 ± 1.2 kg/m3
303.15 K, 1447.7 kPa | 956.2 ± 1.2 kg/m3
303.15 K, 1500.9 kPa | 956.2 ± 1.2 kg/m3
303.15 K, 1544.9 kPa | 956.4 ± 1.2 kg/m3
303.15 K, 1600.2 kPa | 956.4 ± 1.2 kg/m3
303.15 K, 1657.7 kPa | 956.3 ± 1.2 kg/m3
303.15 K, 1716.5 kPa | 956.4 ± 1.2 kg/m3
303.15 K, 1763.5 kPa | 956.4 ± 1.2 kg/m3
303.15 K, 1789.9 kPa | 956.6 ± 1.2 kg/m3
303.15 K, 1809.7 kPa | 956.6 ± 1.2 kg/m3
303.15 K, 1826.2 kPa | 956.5 ± 1.2 kg/m3
303.15 K, 1847 kPa | 956.6 ± 1.2 kg/m3
303.15 K, 1864.2 kPa | 956.5 ± 1.2 kg/m3
303.15 K, 1884.7 kPa | 956.4 ± 1.2 kg/m3
303.15 K, 1906.9 kPa | 956.5 ± 1.2 kg/m3
303.15 K, 1925.8 kPa | 956.5 ± 1.2 kg/m3
303.15 K, 1948 kPa | 956.5 ± 1.2 kg/m3
303.15 K, 1967.5 kPa | 956.7 ± 1.2 kg/m3
303.15 K, 1990.5 kPa | 956.6 ± 1.2 kg/m3
303.15 K, 2013.8 kPa | 956.6 ± 1.2 kg/m3
303.15 K, 2034.1 kPa | 956.6 ± 1.2 kg/m3
303.15 K, 2058.5 kPa | 956.7 ± 1.2 kg/m3
303.15 K, 2083.2 kPa | 956.6 ± 1.2 kg/m3
303.15 K, 2104.7 kPa | 956.6 ± 1.2 kg/m3
303.15 K, 2130.4 kPa | 956.7 ± 1.2 kg/m3
